Measurements from patent publication EP4800018A1, “PAN-KRAS INHIBITOR AND USE THEREOF IN MEDICINES” (Betta Pharmaceuticals Co., Ltd., priority 2023, dated 2025).
Where two headings read alike, the source gives them in different places.

What was measured:
Format in all cases: cell-based
[1] = test system: KRAS-G12D mutant tumor cells AGS; experiment: Cell Proliferation Inhibition Assay (AGS), Cell-titer GLO, 96 h; details: AGS cells, 96 h incubation, Cell-titer GLO, read-out: AGS(G12D)
How it was run: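 AGS cells (KRAS-G12D) grown in low-attachment plates were exposed to compound for 96 h at 37°C. Viability was read by CellTiter-Glo luminescence and converted to % inhibition against max and blank wells. IC50 came from curve fitting.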

[2] = test system: KRAS-G12V mutant tumor cells SW620; experiment: Cell Proliferation Inhibition Assay (SW620), Cell-titer GLO, 96 h; details: SW620 cells, 96 h incubation, Cell-titer GLO, read-out: SW620(G12V)
How it was run: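 SW620 cells (1×10^3/well, low-attachment) were exposed to compound from 10000 to 0.03 nM (0.5% DMSO) for 96 h at 37°C. Viability was read by Cell-titer GLO luminescence. Inhibition was calculated relative to DMSO and blank wells, and IC50 obtained by curve fitting.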

KRAS G12D-cRAF = target: T1, KRAS G12D-cRAF (Homo sapiens, UniProt P01116, G12D); experiment: Cellular KRAS G12D-cRAF Binding Inhibition Assay (NanoBRET, AD293 stable cells); details: 3 h incubation, read-out: NanoBRET KRAS G12D
T1 construct: expressed in transfected cells
T1 sequence (P01116 1-188 isoform P01116-2 G12D): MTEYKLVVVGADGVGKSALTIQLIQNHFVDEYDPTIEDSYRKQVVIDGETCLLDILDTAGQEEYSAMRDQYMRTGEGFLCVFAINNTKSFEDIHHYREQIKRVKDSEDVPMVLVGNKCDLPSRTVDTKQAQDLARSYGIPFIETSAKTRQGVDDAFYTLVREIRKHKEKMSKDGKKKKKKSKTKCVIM
How it was run: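 AD293 cells stably expressing KRAS G12D-NanoLuc and cRAF RBD-HaloTag were seeded at 1×10^4 cells/well with NanoBRET 618 ligand overnight. BRET signal was converted to % inhibition of binding relative to max and blank wells, and IC50 came from curve fitting.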

KRAS G12V-cRAF = target: T2, KRAS G12V-cRAF (Homo sapiens, UniProt P01116, G12V); experiment: Cellular KRAS G12V-cRAF Binding Inhibition Assay (NanoBRET, AD293 stable cells); details: 3 h incubation, read-out: NanoBRET KRAS G12V
T2 construct: expressed in transfected cells
T2 sequence (P01116 1-188 isoform P01116-2 G12V): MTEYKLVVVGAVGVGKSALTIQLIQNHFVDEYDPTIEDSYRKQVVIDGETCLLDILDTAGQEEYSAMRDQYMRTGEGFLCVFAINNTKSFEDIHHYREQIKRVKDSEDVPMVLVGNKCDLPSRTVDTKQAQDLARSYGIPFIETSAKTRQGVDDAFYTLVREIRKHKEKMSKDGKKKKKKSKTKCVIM
How it was run: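 Live AD293 stable cells, NanoLuc donor with HaloTag NanoBRET 618 ligand acceptor added overnight. Inhibition percent from luminescence relative to max signal and medium blank; IC50 from curve fitting.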

IC50 ([1]; Homo sapiens, AGS, 96 h) | IC50 ([2]; Homo sapiens, SW-620, 96 h) | IC50 (KRAS G12D-cRAF) | IC50 (KRAS G12V-cRAF) | IC50 [1] | IC50 [2] | Compound
8.27 nM | 4.1 nM | 9.57 nM | 37.8 nM |  |  | CC1OCCCn2c(c3c4cc(ccc42)-c2csc(n2)CC(NC(=O)C24CC(C)(C2)C4)C(=O)N2CCCC(N2)C(=O)OCC(C)(C)C3)-c2cc(N3CCOCC3)cnc21 (stereo not drawn) [Example 116, 3-methyl-N-((1^5S6^3S4S,Z)-1^5,10,10-trimethyl-1^2-morpholino-5,7-dioxo-1^8,1^9,6^1,6^2,6^3,6^4,6^5,6^6-octahydro-1^5H,1^7H-8-oxa-1(13,15)-pyrido[3',2':7,8][1,5]oxazonino[5,6-a]indola-2(4,2)-thiazola-6 (1,3)-pyridazinacycloundecaphane-4-yl)bicyclo[1.1.1]pentane-1-carboxamide]
0.86 nM | 0.21 nM | 1.8 nM | 8.1 nM |  |  | CC1OCCCn2c(c3c4cc(ccc42)-c2csc(n2)CC(NC(=O)C2CC2C(F)F)C(=O)N2CCCC(N2)C(=O)OCC(C)(C)C3)-c2cc(N3CCCC(N(C)C)C3)cnc21 [Example 117, (1S,2S)-2-(difluoromethyl)-N-((1^5S,6^3S,4S,Z)-1^2-(3-(dimethylamino)piperidin-1-yl)-1^5,10,10-trimethyl-5,7-dioxo-1^8,1^9,6^1,6^2,6^3,6^4,6^5,6^6-octahydro-1^5H,1^7H-8-oxa-1(13,15)-pyrido[3',2':7,8][1,5]oxazonino[5,6-a]indola-2(4,2)-thiazola-6(1,3)-pyridazinacycloundecaphane-4-yl)cyclopropane-1-carboxamide]
3.77 nM | 1.5 nM | 7.2 nM | 30.6 nM |  |  | CC1OCCCn2c(c3c4cc(ccc42)-c2csc(n2)CC(NC(=O)C2CC2C)C(=O)N2CCCC(N2)C(=O)OCC(C)(C)C3)-c2cc(N3CCOCC3)cnc21 [Example 118, (1S,2S)-2-methyl-N-((1^5S,6^3S,4S,Z)-1^5,10,10-trimethyl-1^2-morpholino-5,7-dioxo-1^8,1^9,6^1,6^2,6^3,6 ^4,6^5,6^6-octahydro-1^5H,1^7H-8-oxa-1(13,15)-pyrido[3',2':7,8][1,5]oxazonino[5,6-a]indola-2(4,2)-thiazola-6(1,3)-pyridazinacycloundecaphane-4-yl)cyclopropane-1-carboxamide]
4.67 nM | 1.45 nM | 8.38 nM | 18 nM |  |  | CCN1CCN(c2cnc3c(c2)-c2c4c5cc(ccc5n2CCCOC3C)-c2csc(n2)CC(NC(=O)C23COC(C)(C2)C3)C(=O)N2CCCC(N2)C(=O)OCC(C)(C)C4)CC1 [Example 124, (1S,4r)-N-((1^5S,6^3S,4S,Z)-1^2-(4-ethylpiperazin-1-yl)-1^5,10,10-trimethyl-5,7-dioxo-1^8,1^9,6^1,6^2,6^3, 6^4,6^5,6^6-octahydro-1^5H,1^7H-8-oxa-1(13,15)-pyrido[3',2':7,8][1,5]oxazonino[5,6-a]indola-2(4,2)-thiazola-6(1,3)-pyridazinacycloundecaphane-4-yl)-1-methyl-2-oxabicyclo[2.1.1]hexane-4-carbox amide]
2.8 nM | 0.6 nM | 4.55 nM | 14.7 nM |  |  | CC1OCCCn2c(c3c4cc(ccc42)-c2csc(n2)CC(NC(=O)C2CC2C(F)F)C(=O)N2CCCC(N2)C(=O)OCC(C)(C)C3)-c2cc(N3CCC4(CC3)COC4)cnc21 [Example 125, (1S,2S)-2-(difluoromethyl)-N-((1^5S,6^3S,4SZ)-1^5,10,10-trimethyl-5,7-dioxo-1^2-(2-oxa-7-azaspiro [3.5]nonan-7-yl)-1^8,1^9,6^1,6^2,6^3,6^4,6^5,6^6-octahydro-1^5H,1^7H-8-oxa-1(13,15)-pyrido[3',2':7,8][1,5]oxazonino[5,6-a]indola-2(4,2)-thiazola-6(1,3)-pyridazinacycloundecaphane-4-yl)cyclopropane-1-carboxamide]
1.28 nM | 0.29 nM | 2.5 nM | 11.4 nM |  |  | CC1CN(c2cnc3c(c2)-c2c4c5cc(ccc5n2CCCOC3C)-c2csc(n2)CC(NC(=O)C2CC2C(F)F)C(=O)N2CCCC(N2)C(=O)OCC(C)(C)C4)CC(C)O1 [Example 128, (1S,2S)-2-(difluoromethyl)-N-((1^5S,6^3S,4S,Z)-1^2-((2S,6R)-2,6-dimethylmorpholino)-1^5,0,10-trimethyl-5,7-dioxo-1^8,1^9,6^1,6^2,6^3,6^4,6^5,6^6-octahydro-1^5H,1^7H-8-oxa-1(13,15)-pyrido[3',2':7,8][1,5]oxazonino[5,6-a]indola-2(4,2)-thiazola-6(1,3)-pyridazinacycloundecaphane-4-yl)cyclopropane-1-carboxamide]
1.8 nM | 0.85 nM | 3.4 nM | 16.3 nM |  |  | CC1CN(c2cnc3c(c2)-c2c4c5cc(ccc5n2CCCOC3C)-c2csc(n2)CC(NC(=O)C2CC2C(F)F)C(=O)N2CCCC(N2)C(=O)OCC(C)(C)C4)CCO1 [Example 130, (1S,2S)-2-(difluoromethyl)-N-((1^5S,6^3S,4S,Z)-1^5,10,10-trimethyl-1^2-((R)-2-methylmorpholino)-5,7-dioxo-1^8,1^9,6^1,6^2,6^3,6^4,6^5,6^6-octahydro-1^5H,^7H-8-oxa-1(13,15)-pyrido[3',2':7,8][1,5]oxazonino[5,6-a]indola-2(4,2)-thiazola-6(1,3)-pyridazinacycloundecaphane-4-yl)cyclopropane-1-carbox amide]
 |  | 2.57 nM | 11 nM | 1.31 nM | 0.51 nM | CC1CN(c2cnc3c(c2)-c2c4c5cc(ccc5n2CCCOC3C)-c2csc(n2)CC(NC(=O)C2CC2C(F)F)C(=O)N2CCCC(N2)C(=O)OCC(C)(C)C4)CC(C)O1 [Example 131, (1S,2S)-2-(difluoromethyl)-N-((1^5S,6^3S,4S,Z)-1^2-((2S,6S)-2,6-dimethylmorpholino)-1^5,10,10-trimethyl-5,7-dioxo-1^8,1^9,6^1,6^2,6^3,6^4,6^5,6^6-octahydro-1^5H,1^7H-8-oxa-1(13,15)-pyrido[3',2':7,8][1,5]oxazonino[5,6-a]indola-2(4,2)-thiazola-6(1,3)-pyridazinacycloundecaphane-4-yl)cyclopropane-1-carboxamide]
1.25 nM | 0.79 nM | 9.2 nM | 40.9 nM |  |  | CC1OCCCn2c(c3c4cc(ccc42)-c2csc(n2)CC(NC(=O)C2CC2C(F)F)C(=O)N2CCCC(N2)C(=O)OCC(C)(C)C3)-c2cc(N3CCS(=O)(=O)CC3)cnc21 [Example 133, (1S,2S)-2-(difluoromethyl)-N-((1^5S,6^3S,4S,Z)-1^2-(1,1-dioxidothiomorpholino)-1^5,10,10-trimethy 1-5,7-dioxo-1^8,1^9,6^1,6,^26^3,6^4,6^5,6^6-octahydro-1^5H,1^7H-8-oxa-1(13,15)-pyrido[3',2':7,8][1,5]oxazonino[5,6-alindola-2(4,2)-thiazola-6(1,3)-pyridazinacycloundecaphane-4-yl)cyclopropane-1-carboxamide]
1.7 nM | 1.44 nM | 13.7 nM | 59 nM |  |  | CC1OCCCn2c(c3c4cc(ccc42)-c2csc(n2)CC(NC(=O)C2CC2C(F)F)C(=O)N2CCCC(N2)C(=O)OCC(C)(C)C3)-c2cc(N3CC[S+]([O-])CC3)cnc21 [Example 134, (1S,2S)-2-(difluoromethyl)-N-(((1^5S,6^3S,4S,Z)-1^5,10,10-trimethyl-1^2-(1-oxidothiomorpholino)-5,7-dioxo-1^8,1^9,6^1,6^2,6^3,6^4,6^5,6^6-octahydro-1^5H,1^7H-8-oxa-1(13,15)-pyrido[3',2':7,8][1,5]oxazonino[5,6-alindola-2(4,2)-thiazola-6(1,3)-pyridazinacycloundecaphane-4-yl)cyclopropane-1-carboxamide]
 |  | 2.39 nM | 10.6 nM | 2.2 nM | 0.7 nM | COC1CCN(c2cnc3c(c2)-c2c4c5cc(ccc5n2CCCOC3C)-c2csc(n2)CC(NC(=O)C2CC2C(F)F)C(=O)N2CCCC(N2)C(=O)OCC(C)(C)C4)C1 [Example 135, (1S,2S)-2-(difluoromethyl)-N-((1^5S,6^3S,4S,Z)-1^2-((R)-3-methoxypyrrolidin-1-yl)-1^5,10,10-trimethyl-5,7-dioxo-1^8, 1^9,6^1 ,6^2,6^3,6^4,6^5 ,6^6-octahydro-1^5H,1^7H-8-oxa-1(13,15)-pyrido[3',2':7,8][1,5]oxazonino[5,6-a]indola-2(4,2)-thiazola-6(1,3)-pyridazinacycloundecaphane-4-yl)cyclopropane-1-car boxamide]
 |  | 4.59 nM | 19.6 nM | 5.6 nM | 1.5 nM | COC1CCN(c2cnc3c(c2)-c2c4c5cc(ccc5n2CCCOC3C)-c2csc(n2)CC(NC(=O)C2CC2C(F)F)C(=O)N2CCCC(N2)C(=O)OCC(C)(C)C4)C1 [Example 136, (1S,2S)-2-(difluoromethyl)-N-((1^5S,6^3S,4S,Z)-1^2-((S)-3-methoxypyrrolidin-1-yl)-1^5,10,10-trimethyl-5,7-dioxo-1^8,1^9,6^1,6^2,6^3,6^4,6^5,6^6-octahydro-1^5H,1^7H-8-oxa-1(13,15)-pyrido[3',2':7,8][1,5]oxazonino[5,6-alindola-2(4,2)-thiazola-6(1,3)-pyridazinacycloundecaphane-4-yl)cyclopropane-1-carboxamide]
